Reference: ChEMBL document CHEMBL1201862, “PubChem BioAssay data set” (2004)
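In this assay, cells in 96-well plates receive the compound at five concentrations for 48 hours. Endpoints are linearly interpolated between the surrounding concentrations. At the GI50, growth is halved.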 Activity calls are given as the source filed them. Rule as the data show it: active = GI50 up to about 1.1 µM and inactive = higher.

Legend:
Test in all cases: inhibition of tumour cell growth, NCI panel, 48 h
BT-549 = tested on: BT-549
MDA-MB-435 = tested on: MDA-MB-435
HT-29 = tested on: HT-29
SK-MEL-2 = tested on: SK-MEL-2
MCF7 = tested on: MCF7
SF-268 = tested on: SF-268
M14 = tested on: M14
HOP-62 = tested on: HOP-62
SF-539 = tested on: SF-539
UACC-257 = tested on: UACC-257
HOP-92 = tested on: HOP-92
EKVX = tested on: EKVX
CCRF-CEM = tested on: CCRF-CEM
K562 = tested on: K562
Hs-578T = tested on: Hs-578T
NCI/ADR-RES = tested on: NCI/ADR-RES
NCI-H460 = tested on: NCI-H460
OVCAR-5 = tested on: OVCAR-5
OVCAR-8 = tested on: OVCAR-8
M19-MEL = tested on: M19-MEL

SMILES	GI50 (BT-549)	GI50 (MDA-MB-435)	GI50 (HT-29)	GI50 (SK-MEL-2)	GI50 (MCF7)	GI50 (SF-268)	GI50 (M14)	GI50 (HOP-62)	GI50 (SF-539)	GI50 (UACC-257)	GI50 (HOP-92)	GI50 (EKVX)	GI50 (CCRF-CEM)	GI50 (K562)	GI50 (Hs-578T)	GI50 (NCI/ADR-RES)	GI50 (NCI-H460)	GI50 (OVCAR-5)	GI50 (OVCAR-8)	GI50 (M19-MEL)
CCc1c(Cl)c(C)cc(O)c1Cl	16.6 µM (inactive)	35.6 µM (inactive)	27.5 µM (inactive)	20.8 µM (inactive)	32 µM (inactive)	53.8 µM (inactive)	34.7 µM (inactive)	> 100 µM (inactive)	23 µM (inactive)	29.6 µM (inactive)	23.2 µM (inactive)	36.2 µM (inactive)	25.7 µM (inactive)	33.7 µM (inactive)	25.7 µM (inactive)	45.2 µM (inactive)	32.7 µM (inactive)	> 100 µM (inactive)	44.3 µM (inactive)	
CCCCCCCC(=O)OCC(C[As](=O)(O)O)OC(=O)CCCCCCC (configuration not stated)			17.1 µM (inactive)			14.9 µM (inactive)	15 µM (inactive)	20.3 µM (inactive)	14.1 µM (inactive)	14.8 µM (inactive)	12.7 µM (inactive)	18.3 µM (inactive)	6.49 µM (inactive)	20.6 µM (inactive)					15.8 µM (inactive)	15.7 µM (inactive)
O=C(O)c1ccc(NNC(=O)c2cccc3c(=O)c4ccccc4[nH]c23)cc1	85.7 µM (inactive)	> 100 µM (inactive)	> 100 µM (inactive)	> 100 µM (inactive)	> 100 µM (inactive)	> 100 µM (inactive)	> 100 µM (inactive)	> 100 µM (inactive)	> 100 µM (inactive)	> 100 µM (inactive)	65 µM (inactive)	57.9 µM (inactive)	66.2 µM (inactive)	58.6 µM (inactive)	> 100 µM (inactive)	> 100 µM (inactive)	92.9 µM (inactive)	> 100 µM (inactive)	> 100 µM (inactive)	
O=C1OC(=O)C2CCCC3CCCC1C32 (configuration not stated)	> 100 µM (inactive)	> 100 µM (inactive)	> 100 µM (inactive)	> 100 µM (inactive)	> 100 µM (inactive)	> 100 µM (inactive)	> 100 µM (inactive)	> 100 µM (inactive)	> 100 µM (inactive)	> 100 µM (inactive)	> 100 µM (inactive)	> 100 µM (inactive)	> 100 µM (inactive)	> 100 µM (inactive)	> 100 µM (inactive)	> 100 µM (inactive)	> 100 µM (inactive)	> 100 µM (inactive)	> 100 µM (inactive)	
Cc1ccc(Nc2cccc3c2C(=O)c2cccc(Nc4ccc(C)cc4S(=O)(=O)O)c2C3=O)c(S(=O)(=O)O)c1				> 100 µM (inactive)		> 100 µM (inactive)	> 100 µM (inactive)	> 100 µM (inactive)	> 100 µM (inactive)	> 100 µM (inactive)		> 100 µM (inactive)	> 100 µM (inactive)	> 100 µM (inactive)			> 100 µM (inactive)		> 100 µM (inactive)	> 100 µM (inactive)
CC1C(=O)O[B-]2(c3ccccc3)Oc3ccccc3C=[N+]12 (configuration not stated)	> 100 µM (inactive)	> 100 µM (inactive)	> 100 µM (inactive)	> 100 µM (inactive)	61.2 µM (inactive)	> 100 µM (inactive)	> 100 µM (inactive)	> 100 µM (inactive)	> 100 µM (inactive)	> 100 µM (inactive)	31.3 µM (inactive)	> 100 µM (inactive)	> 100 µM (inactive)	> 100 µM (inactive)	> 100 µM (inactive)	> 100 µM (inactive)	> 100 µM (inactive)	> 100 µM (inactive)	> 100 µM (inactive)	
O=C(CC(=O)c1ccccc1)c1ccccc1.O=C(CC(=O)c1ccccc1)c1ccccc1.O=C(CC(=O)c1ccccc1)c1ccccc1.[SiH4]			4.41 µM (inactive)			3.37 µM (inactive)	6.24 µM (inactive)	7.59 µM (inactive)	8.67 µM (inactive)	9.42 µM (inactive)	4.57 µM (inactive)	6.65 µM (inactive)	1.14 µM (inactive)	3.88 µM (inactive)				12.4 µM (inactive)	3.47 µM (inactive)	3.31 µM (inactive)
CC1(O)CCC(C(C)(C)O)CC1 (configuration not stated) [TERPIN]	> 100 µM (inactive)	> 100 µM (inactive)	> 100 µM (inactive)	> 100 µM (inactive)	> 100 µM (inactive)	> 100 µM (inactive)	> 100 µM (inactive)	> 100 µM (inactive)	> 100 µM (inactive)	> 100 µM (inactive)	> 100 µM (inactive)	0.505 µM (active)	> 100 µM (inactive)	> 100 µM (inactive)	> 100 µM (inactive)	> 100 µM (inactive)	> 100 µM (inactive)	> 100 µM (inactive)	> 100 µM (inactive)	
